According to US20210330788A1, “USES OF ANTI-BCMA CHIMERIC ANTIGEN RECEPTORS” (CELGENE CORPORATION, priority 2018, published 2021):

Tested on: human multiple myeloma (RPMI-8226) tumors
Experiment: Sub-cutaneous human multiple myeloma (RPMI-8226) tumor model in NSG mice (FIGS. 8A and 8B)
Type: in vivo, NOD scid gamma (NSG) mice
Settings: ˜100mm^3 tumors; 10^7 CAR T cells or Bortezomib; two independent experiments
Description: Hyperactivation and increased apoptosis could negatively impact CAR T cell persistence in patients and ultimately clinical efficacy. The anti-tumor function of anti-BCMA02 CAR T cells and anti-BCMA10 CAR T cells was examined in a mouse tumor model. NOD-scid gamma (NSG) mice with ˜100mm^3 experimental sub-cutaneous human multiple myeloma (RPMI-8226) tumors were treated with 10^7 anti-BCMA02 CAR T cells, 10^7 anti-BCMA10 CAR T cells, or Bortezomib (VELCADE®). RPMI-8226 growth was monitored with calipers.

## CC(C)C[C@H](NC(=O)[C@H](Cc1ccccc1)NC(=O)c1cnccn1)B(O)O [Bortezomib]
  RPMI-8226 tumor growth (calipers): controlled tumor growth
